The text below walks through data of the Kinase Knowledgebase extract (Sharma et al. 2016).

One assay addresses EGFR (human) (UniProt P00533). To be noted: a431.
Another assay addresses EGFR (UniProt P00533).

The structures appear in SMILES notation. ≈ marks a conversion by molar mass, not a printed value.

EGFR (human), sequence (P00533 whole entry, looked up): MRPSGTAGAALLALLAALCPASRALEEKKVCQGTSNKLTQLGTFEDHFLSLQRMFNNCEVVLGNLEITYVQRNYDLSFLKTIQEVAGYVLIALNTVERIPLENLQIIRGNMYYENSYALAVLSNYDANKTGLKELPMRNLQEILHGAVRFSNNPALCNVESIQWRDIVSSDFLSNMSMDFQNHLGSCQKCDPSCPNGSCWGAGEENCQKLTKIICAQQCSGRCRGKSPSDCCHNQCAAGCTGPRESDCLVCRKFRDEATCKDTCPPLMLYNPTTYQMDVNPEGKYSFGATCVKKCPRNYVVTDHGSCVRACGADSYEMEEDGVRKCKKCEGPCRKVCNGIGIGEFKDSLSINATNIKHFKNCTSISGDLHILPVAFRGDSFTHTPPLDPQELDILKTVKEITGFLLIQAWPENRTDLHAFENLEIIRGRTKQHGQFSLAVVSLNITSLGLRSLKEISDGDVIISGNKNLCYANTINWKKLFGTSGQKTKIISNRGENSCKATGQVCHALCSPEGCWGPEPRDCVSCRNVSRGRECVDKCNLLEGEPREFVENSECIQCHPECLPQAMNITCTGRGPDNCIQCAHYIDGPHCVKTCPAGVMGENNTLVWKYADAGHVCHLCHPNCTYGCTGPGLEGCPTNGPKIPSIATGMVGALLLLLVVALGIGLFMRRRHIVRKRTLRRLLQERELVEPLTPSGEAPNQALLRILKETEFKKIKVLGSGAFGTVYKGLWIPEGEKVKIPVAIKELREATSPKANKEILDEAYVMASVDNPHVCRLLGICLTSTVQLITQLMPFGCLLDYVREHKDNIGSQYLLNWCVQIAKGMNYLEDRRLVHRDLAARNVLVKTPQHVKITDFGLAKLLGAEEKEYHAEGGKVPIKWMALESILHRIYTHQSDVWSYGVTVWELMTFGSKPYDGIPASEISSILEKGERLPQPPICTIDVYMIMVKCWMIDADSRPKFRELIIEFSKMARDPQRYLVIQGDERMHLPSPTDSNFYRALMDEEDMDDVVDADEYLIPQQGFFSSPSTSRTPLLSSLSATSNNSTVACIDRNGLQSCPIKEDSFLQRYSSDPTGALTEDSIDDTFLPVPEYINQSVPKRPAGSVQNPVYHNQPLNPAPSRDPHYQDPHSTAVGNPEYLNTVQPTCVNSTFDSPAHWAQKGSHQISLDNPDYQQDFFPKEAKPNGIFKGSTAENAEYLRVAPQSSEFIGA
EGFR, sequence (P00533 whole entry, looked up): as above

For `CCOc1cc2ncc(C#N)c(Nc3ccc4c(c3)S(=O)(=O)C=C4)c2cc1OCC`, on EGFR (human), the half-maximal inhibitory concentration (IC50) – broadly, the midpoint of a concentration-inhibition curve – was found to be 0.257 µg/mL (≈ 0.61 µM). The same measure, in the same setting: next, `CCOc1cc2c(Nc3ccc4cn[nH]c4c3)c(C#N)cnc2cc1OC`: 0.786 µg/mL (≈ 2.19 µM). Regarding `COCCOc1cc2ncc(C#N)c(Nc3ccc4cn[nH]c4c3)c2cc1OCCOC`, the IC50 against EGFR (human) was determined as 1.96 µg/mL (≈ 4.52 µM). Still for that read-out and setting: with `CCOc1cc2ncc(C#N)c(Nc3cc(Cl)c(Nc4nncs4)c(C(F)(F)F)c3)c2cc1NC(=O)/C=C/CN(C)C` the figure was 0.728 µg/mL (≈ 1.18 µM); with `COc1cc2c(Nc3ccc(Sc4nccn4C)c(Cl)c3)c(C#N)cnc2cc1OCCCN1CCOCC1`, 0.775 µg/mL (≈ 1.37 µM); with `CCOc1cc2ncc(C#N)c(Nc3ccc4c(c3)CCC4)c2cc1OCC`, 0.342 µg/mL (≈ 0.916 µM). The same measure, in the same setting: next, `CCOc1cc2ncc(C#N)c(Nc3ccc(Sc4nc(C)cc(C)n4)c(Cl)c3)c2cc1N`: 0.76 µg/mL (≈ 1.59 µM); `COc1cc2ncc(C#N)c(Nc3ccc(Sc4nc5ccccc5c(=O)[nH]4)c(Cl)c3)c2cc1NC(=O)/C=C/CN(C)C`: 0.34 µg/mL (≈ 0.555 µM).

On EGFR (human), `COc1cc2ncc(C#N)c(Nc3ccc(-n4ccnc4)c(Cl)c3)c2cc1NC(=O)/C=C/CN(C)C` registered an IC50 of 0.51 µg/mL (≈ 1.02 µM). In turn, `CCOc1cc2ncc(C#N)c(Nc3cc(Cl)c(Nc4nncs4)c(C(F)(F)F)c3)c2cc1[N+](=O)[O-]` gave an IC50 against EGFR (human) of 1.79 µg/mL (≈ 3.34 µM). The same measure, in the same setting: with `CCOc1cc2ncc(C#N)c(Nc3ccc4c(c3)OCCO4)c2cc1OCC` the figure was 0.27 µg/mL (≈ 0.69 µM); with `COc1cc2ncc(C#N)c(Nc3ccc(N(c4ccc(N(Cc5cccnc5)C(C)=O)c(Cl)c4)c4c(OC)cnc5ccccc45)c(Cl)c3)c2cc1N`, more than 5 µg/mL; with `CCOc1cc2ncc(C#N)c(Nc3ccc(Sc4nc(-c5ccccc5)cs4)c(C(F)(F)F)c3)c2cc1N`, more than 5 µg/mL. The same measure, in the same setting: with `CCOc1cc2ncc(C#N)c(Nc3ccc4cn[nH]c4c3)c2cc1OC` the figure was 0.0368 µg/mL (≈ 0.102 µM); with `COc1cc2ncc(C#N)c(Nc3ccc(NCc4cccnc4)c(Cl)c3)c2cc1[N+](=O)[O-]`, 1.6 µg/mL (≈ 3.47 µM); with `COc1cc2ncc(C#N)c(Nc3ccc(Sc4nccs4)c(Cl)c3)c2cc1[N+](=O)[O-]`, 0.148 µg/mL (≈ 0.315 µM).

On EGFR (human), `CCOc1cc2ncc(C#N)c(Nc3ccc(Sc4nc(-c5ccccc5)cs4)c(C(F)(F)F)c3)c2cc1[N+](=O)[O-]` displayed a half-maximal inhibitory concentration (IC50) of 0.76 µg/mL (≈ 1.28 µM). `COc1cc2c(Nc3ccc(Sc4nccn4C)c(Cl)c3)c(C#N)cnc2cc1OCCCn1ccnn1`: the IC50 against EGFR (human) stood at 1.83 µg/mL (≈ 3.35 µM). Same read-out and setting: next, `COc1cc2ncc(C#N)c(Nc3ccc(Sc4nccs4)c(Cl)c3)c2cc1N`: 0.663 µg/mL (≈ 1.51 µM); `CCOc1cc2ncc(C#N)c(Nc3ccc(Oc4ccncc4)c(Cl)c3)c2cc1[N+](=O)[O-]`: more than 5 µg/mL; `CCOc1cc2ncc(C#N)c(Nc3ccc(Cn4ccnc4)c(Cl)c3)c2cc1N`: more than 5 µg/mL.

`COc1cc2nc(Sc3ccc(Nc4c(C#N)cnc5cc(OC)c([N+](=O)[O-])cc45)cc3Cl)[nH]c(=O)c2cc1O` had an IC50 at EGFR (human) of 2.28 µg/mL (≈ 3.95 µM).

`CCOc1cc2ncc(C#N)c(Nc3ccc(Sc4nc(C)cc(C)n4)c(Cl)c3)c2cc1NC(=O)/C=C/CN(C)C` gave an IC50 at EGFR (human) of 0.24 µg/mL (≈ 0.408 µM). On to `COc1ccc2c(N(c3ccc(N(Cc4cccnc4)C(C)=O)c(Cl)c3)c3ccc(Nc4c(C#N)cnc5cc(OC)c(NC(C)=O)cc45)cc3Cl)c(C#N)cnc2c1`, for which the IC50 on EGFR (human) stood at 3.68 µg/mL (≈ 4.47 µM). Against the preceding compound, the IC50 is about 15-fold higher. On the same count and under the same terms, next, `COc1cc2ncc(C#N)c(Nc3ccc(Sc4nccs4)c(Cl)c3)c2cc1NC(=O)/C=C/CN(C)C`: 0.017 µg/mL (≈ 0.0308 µM).

Turning to `CCOc1cc2ncc(C#N)c(Nc3ccc(Sc4nccc(C)n4)c(Cl)c3)c2cc1[N+](=O)[O-]`, on EGFR (human), the IC50 stood at 1.2 µg/mL (≈ 2.43 µM). Compared with the last compound, the IC50 is about 71-fold higher. For `COc1cc2ncc(C#N)c(Nc3ccc(Sc4nc(-c5ccccc5)cs4)c(Cl)c3)c2cc1NC(=O)/C=C/CN(C)C`, the IC50 on EGFR (human) turned out to be 0.162 µg/mL (≈ 0.258 µM). Compared with the last compound, the IC50 is about 7.4-fold lower. Same read-out and setting: next, `CCOc1cc2ncc(C#N)c(Nc3ccc4c(c3)CCC4=O)c2cc1OCC`: 0.0181 µg/mL (≈ 0.0467 µM); `COCCN(C)C/C=C/C(=O)Nc1cc2c(Nc3ccc(Sc4nccs4)c(Cl)c3)c(C#N)cnc2cc1OC`: 0.03 µg/mL (≈ 0.0504 µM); `CCOc1cc2ncc(C#N)c(Nc3ccc(Sc4nccc(C)n4)c(Cl)c3)c2cc1N`: 1.53 µg/mL (≈ 3.3 µM). On to `COc1cc2ncc(C#N)c(Nc3ccc(N(Cc4cccnc4)C(C)=O)c(Cl)c3)c2cc1NC(=O)/C=C/CN(C)C`, for which the IC50 at EGFR (human) worked out at 0.646 µg/mL (≈ 1.11 µM).

At EGFR (human), `COc1cc2ncc(C#N)c(Nc3ccc(Sc4nccn4C)c(Cl)c3)c2cc1[N+](=O)[O-]` registered a half-maximal inhibitory concentration (IC50) of 2.88 µg/mL (≈ 6.17 µM). On EGFR (human), `COc1cc2ncc(C#N)c(Nc3ccc(-n4ccnc4)c(Cl)c3)c2cc1[N+](=O)[O-]` displayed an IC50 of 1.79 µg/mL (≈ 4.25 µM). Still for that read-out and setting: next, `CCOc1cc2ncc(C#N)c(Nc3ccc(Nc4nnc(C(F)(F)F)s4)c(Cl)c3)c2cc1N`: more than 5 µg/mL. `CCOc1cc2ncc(C#N)c(Nc3ccc(OCc4ccccc4)c(Cl)c3)c2cc1NC(=O)/C=C/CN(C)C`: the concentration for half-maximal inhibition (IC50) was determined as 0.028 µg/mL (≈ 0.0504 µM) against EGFR and 0.062 µg/mL (≈ 0.111 µM) on EGFR (human). `CCOc1cc2ncc(C#N)c(Nc3ccc(Sc4nc(C)cc(C)n4)c(Cl)c3)c2cc1[N+](=O)[O-]` displayed an IC50 against EGFR (human) of more than 5 µg/mL.

Take `CCOc1cc2ncc(C#N)c(Nc3ccc(OCc4cccc(F)c4)c(Cl)c3)c2cc1NC(=O)/C=C/CN(C)C`: the IC50 at EGFR was 0.019 µg/mL (≈ 0.0331 µM). With `COc1cc2ncc(C#N)c(Nc3ccc(Sc4nccn4C)c(Cl)c3)c2cc1N`, the IC50 at EGFR (human) was 3.04 µg/mL (≈ 6.96 µM). The compound `CCOc1cc2ncc(C#N)c(Nc3ccc(Cn4ccnc4)c(Cl)c3)c2cc1NC(=O)/C=C/CN(C)C` gave an IC50 against EGFR (human) of 0.95 µg/mL (≈ 1.79 µM).

With `COc1cc2ncc(C#N)c(Nc3ccc4cn[nH]c4c3)c2cc1OCCCN1CCOCC1`, the IC50 at EGFR (human) is more than 5 µg/mL. Consider `CCOc1cc2ncc(C#N)c(Nc3ccc(Cn4ccnc4)c(Cl)c3)c2cc1[N+](=O)[O-]`, for which the IC50 on EGFR (human) is more than 5 µg/mL.

As to `CCOc1cc2ncc(C#N)c(Nc3ccc(Oc4ccncc4)c(Cl)c3)c2cc1N`, the 50% inhibitory concentration (IC50) on EGFR (human) is more than 5 µg/mL. On the same count and under the same terms, with `CCOc1cc2ncc(C#N)c(Nc3ccc4cc[nH]c4c3)c2cc1OCC` the figure was 0.123 µg/mL (≈ 0.33 µM).

With `COc1cc2ncc(C#N)c(Nc3ccc(Sc4nc5ccccc5c(=O)[nH]4)c(Cl)c3)c2cc1N`, at EGFR (human), the IC50 is 1.22 µg/mL (≈ 2.44 µM). On the same count and under the same terms, next, `C=CC(=O)Nc1ccc2ncc(C#N)c(Nc3ccc(Sc4nccn4C)c(Cl)c3)c2c1`: 0.62 µg/mL (≈ 1.35 µM).
